Experimental data: ChEMBL document CHEMBL1143030, “Synthesis and evaluation of 2-(2,6-dihalophenyl)-3-pyrimidinyl-1,3-thiazolidin-4-one analogues as anti-HIV-1 agents” (Bioorg Med Chem, 2007)
The source made the active and inactive calls. No cut-off for these calls is given here.

Key:
[1] = target: Human immunodeficiency virus type 1 reverse transcriptase (Human immunodeficiency virus 1) (UniProt Q72547); experiment: Inhibition of HIV1 reverse transcriptase at 100 ug/ml
[2] = target: Human immunodeficiency virus type 1 reverse transcriptase (Human immunodeficiency virus 1) (UniProt Q72547); experiment: Inhibition of HIV1 reverse transcriptase at 10 ug/ml
[3] = tested on: Human immunodeficiency virus 1; experiment: Antiviral activity against HIV1 3B-induced cytopathic effect in MT4 cells assessed as inhibition of virus-induced syncytium formation; format: functional, organism-based; settings: Human immunodeficiency virus 1, 3B
[4] = Selectivity index, ratio of CC50 for mock-infected MT4 cells to EC50 for HIV1 3B; format: functional
[5] = Cytotoxicity against mock-infected MT4 cells assessed as reduction of cell viability; format: cell-based; settings: human
[6] = tested on: Human immunodeficiency virus 2; experiment: Inhibition of HIV2 ROD replication in MT4 cells; format: functional, organism-based
[7] = Selectivity index, ratio of CC50 for mock-infected CEM cells to EC50 for HIV1 3B; format: functional, CCRF-CEM
[8] = tested on: Human immunodeficiency virus 1; experiment: Antiviral activity against HIV1 3B-induced cytopathic effect in CEM cells assessed as inhibition of virus-induced syncytium formation; format: functional, organism-based; settings: Human immunodeficiency virus 1, 3B, CCRF-CEM
[9] = Cytotoxicity against mock-infected CEM cells assessed as reduction of cell viability; format: cell-based; settings: human, mock-infected CEM (CCRF-CEM) cells

| SMILES | inhibition [1] [%] | inhibition [2] [%] | EC50 ([3]; read-out: EC50) [µM] | Ratio CC50/EC50 [4] | CC50 [5] [µM] | Activity [6] | Ratio CC50/EC50 [7] | EC50 [8] [µM] | EC50 ([3]; read-out: Log EC50 (converted)) [µM] | CC50 [9] [µM] |
| --- | --- | --- | --- | --- | --- | --- | --- | --- | --- | --- |
| Cc1nc(N2C(=O)CSC2c2c(Cl)cccc2Cl)nc(C)c1C (configuration not stated) | 100 | 94.8 | – | – | – | – | – | – | – | – |
| O=C1CSC(c2c(Cl)cccc2Cl)N1c1nc(-c2ccccc2)cc(C(F)(F)F)n1 (configuration not stated) | 39.4 | 25.4 | > 80.2 | <1 | 140 | inactive | – | – | – | – |
| Cc1cc(N2C(=O)CSC2c2c(Cl)cccc2Cl)nc(C)n1 (configuration not stated) | 51.9 | 6.6 | 4.3 | 10 | 41.3 | inactive | 11 | 3.8 | 3.98 | 42 |
| Cc1cc(C(F)(F)F)nc(N2C(=O)CSC2c2c(F)cccc2F)n1 (configuration not stated) | 38.9 | 32.3 | 5 | 25 | 125 | inactive | 32 | 4.4 | 5.01 | 140 |
| O=C1CSC(c2c(Cl)cccc2Cl)N1c1nc(-c2ccccc2)cc(-c2ccccc2)n1 (configuration not stated) | 51.4 | 31.6 | > 195 | <1 | 193 | inactive | – | – | – | – |
| Cc1cc(C(F)(F)F)nc(N2C(=O)CSC2c2c(Cl)cccc2Cl)n1 (configuration not stated) | 43.7 | 32.9 | 1 | 46 | 46.4 | inactive | 62 | 0.8 | 1 | 46.7 |
| Cc1cc(-c2ccccc2)nc(N2C(=O)CSC2c2c(F)cccc2Cl)n1 (configuration not stated) | 79.9 | 32.7 | 3.9 | 38 | 146 | inactive | 44 | 3.9 | 3.98 | 172 |
| Cc1cc(-c2ccccc2)nc(N2C(=O)CSC2c2c(Cl)cccc2Cl)n1 (configuration not stated) | 51.5 | 18 | 6.1 | 6 | 35.3 | inactive | 6 | 5.8 | 6.31 | 35.3 |
| Cc1cc(C(F)(F)F)nc(N2C(=O)CSC2c2c(F)cccc2Cl)n1 (configuration not stated) | 93.7 | 46.3 | 1.3 | 13 | 16.9 | inactive | 18 | 1.1 | 1.26 | 19.3 |
| Cc1nc(N2C(=O)CSC2c2c(F)cccc2Cl)nc(C)c1C (configuration not stated) | 100 | 99.3 | – | – | – | – | – | – | – | – |
| O=C1CSC(c2c(F)cccc2F)N1c1nc(-c2ccccc2)cc(-c2ccccc2)n1 (configuration not stated) | 44 | 30.1 | > 167 | <1 | 177 | inactive | – | – | – | – |
| Clc1cccc(Cl)c1C1SCc2nc3ccccc3n21 (configuration not stated) | – | – | 0.6 | 16 | 9.4 | – | – | – | – | – |
| Cc1cc(N2C(=O)CSC2c2c(F)cccc2Cl)nc(C)n1 (configuration not stated) | 48.6 | 9.3 | 4.3 | 11 | 47.6 | inactive | 12 | 4.1 | 3.98 | 47.6 |
| Cc1cc(-c2ccccc2)nc(N2C(=O)CSC2c2c(F)cccc2F)n1 (configuration not stated) | 54.2 | 47.4 | 6.4 | 6 | 36.5 | inactive | 6 | 5.6 | 6.31 | 36.5 |
| Cc1nc(N2C(=O)CSC2c2c(F)cccc2F)nc(C)c1C (configuration not stated) | 100 | 96.3 | 0.4 | 880 | 341 | inactive | >1222 | 0.3 | 0.398 | > 373 |
| O=C1CSC(c2c(F)cccc2Cl)N1c1nc(-c2ccccc2)cc(C(F)(F)F)n1 (configuration not stated) | 20.6 | 43.9 | > 10.8 | 9 | 93.9 | inactive | – | – | – | – |
| Cc1cc(N2C(=O)CSC2c2c(F)cccc2F)nc(C)n1 (configuration not stated) | 58.1 | 27.2 | 25.5 | 11 | 272 | inactive | 13 | 20.3 | 25.1 | 272 |
| Fc1cccc(F)c1C1SCc2nc3ccccc3n21 (configuration not stated) [THIAZOLOBENZIMIDAZOLE] | – | – | 0.35 | 54.5 | – | – | 45 | 1.1 | – | – |
| O=C1CSC(c2c(F)cccc2Cl)N1c1nc(-c2ccccc2)cc(-c2ccccc2)n1 (configuration not stated) | 66.7 | 55.6 | > 242 | <1 | > 201 | inactive | – | – | – | – |
| O=C1CSC(c2c(F)cccc2F)N1c1nc(-c2ccccc2)cc(C(F)(F)F)n1 (configuration not stated) | 6.6 | 15.6 | > 123 | <1 | 74.3 | inactive | – | – | – | – |
